Starred links: 1 amine or outer side, 2 acyl side, 3 side chain; linkers in the order of their positions; H or OH if unused. Residues, ends and D or L forms follow the SMILES beside them. Groups on a side chain read outwards from the residue. *: point of attachment. C18 diacid = O=C(O)CCCCCCCCCCCCCCCCC(=O)*; γGlu = O=C(O)[C@H](CCC(=O)[*:2])N[*:1]; Palmitoyl = CCCCCCCCCCCCCCCC(=O)*; AEEA = NCCOCCOCC(=O)O
Biological target: T1, human CRHR2b (Homo sapiens, UniProt Q13324)
T1 construct: expressed in transfected cells; host or cells: Chinese Hamster Ovary (CHO) cells, transient transfection
T1 sequence (Q13324 1-438 isoform Q13324-2): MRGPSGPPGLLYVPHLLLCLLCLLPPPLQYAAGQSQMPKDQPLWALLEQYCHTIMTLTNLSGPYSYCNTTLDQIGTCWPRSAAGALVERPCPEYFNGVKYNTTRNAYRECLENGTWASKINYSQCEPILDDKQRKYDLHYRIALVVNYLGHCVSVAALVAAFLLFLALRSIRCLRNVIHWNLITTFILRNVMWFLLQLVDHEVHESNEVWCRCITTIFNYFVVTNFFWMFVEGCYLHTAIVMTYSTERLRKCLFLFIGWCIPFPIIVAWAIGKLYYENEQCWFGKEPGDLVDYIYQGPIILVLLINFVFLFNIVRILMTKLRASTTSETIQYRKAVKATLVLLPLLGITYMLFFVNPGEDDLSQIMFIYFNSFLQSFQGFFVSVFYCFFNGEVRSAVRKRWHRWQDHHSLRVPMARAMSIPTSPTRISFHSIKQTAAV
Test: human CRHR2b cell-based cAMP assay
Settings: cAMP assay; Table 26, compounds of Example 9; read-out: hCRHR2b Average EC50
Procedure: CRHR agonistic activity is measured in a cell-based cAMP assay. Serial dilutions of the test peptides are made in assay buffer containing Hank's Balanced Salt Solution (HBSS, without phenol red) supplemented with 20 mM HEPES and 0.05% lactalbumin enzymatic hydrolysate (LAH) (“assay buffer”). […] A one to three dilution of the test peptides is used in both assays. Receptor over-expressing Chinese Hamster Ovary (CHO) cell line is used for the human CRHR2b assay. […] AF011406.1). Forty-eight hours after the transfection, the cells are centrifuged to remove the culture media and resuspended in fetal bovine serum containing 5% DMSO. They are cryofrozen and stored in vials in liquid nitrogen (20×10^6 cells/ml/vial). On the day of the assay, cells are thawed and resuspended in cold 30 ml culture media supplemented with 20 mM HEPES. The cells are then centrifuged to remove the media and washed once with HBSS supplemented with 20 mM HEPES. Finally, following the last centrifugation, the cells are resuspended in assay buffer. Thirty-thousand cells are used in the human CRHR2b assay for each treatment. The cells are dispensed into Costar 96-well black polystyrene half area EIA/RIA plates (Corning Incorporated, Corning, N.Y.) followed by the addition of the diluted peptides, each at a volume of 20 μL. The agonist induced cAMP levels are detected using a HTRF cAMP Dynamic 2 kit (CisBio, Bedford, Mass.). After incubation at 37° C. for 30 min, the assay is stopped by cell lysis via the addition of 20 μL of d2-labeled cAMP and followed by 20 μL of cryptate-labeled anti-cAMP antibody, as described by the manufacturer. Cellular cAMP (as a result of agonist stimulation) competes with the d2-labeled cAMP for binding to the antibody. HTRF detection is performed on an Envision plate reader (Perkin Elmer Life and Analytical Sciences, Waltham, Mass.) by measuring ratiometric emission at 620 and 665 nm after excitation at 320 nm. The data are converted to picomoles of cAMP using a standard curve obtained from the same assay performed with varying concentrations of unlabeled cAMP. […] The data are analyzed using a Curve Fitting Tool to calculate ED50. Numeric values shown below in Table 1 represent the mean of multiple runs (number of runs shown in parentheses) following the mean value±SEM.

SMILES | EC50
CC[C@H](C)[C@H](N)C(=O)N[C@H](C(=O)N[C@@H](CC(C)C)C(=O)N[C@@H](CO)C(=O)N[C@@H](CC(C)C)C(=O)N[C@@H](CC(=O)O)C(=O)N[C@H](C(=O)N1CCC[C@H]1C(=O)N[C@H](C(=O)NCC(=O)N[C@@H](CC(C)C)C(=O)N[C@@H](CC(C)C)C(=O)N[C@@H](CCC(N)=O)C(=O)N[C@H](C(=O)N[C@@H](CC(C)C)C(=O)N[C@@H](CC(C)C)C(=O)N[C@@H](CCC(=O)O)C(=O)N[C@@H](CCC(N)=O)C(=O)N[C@@H](CCC(=O)O)C(=O)N[C@@H](CCCCN)C(=O)N[C@@H](CCC(N)=O)C(=O)N[C@@H](CCC(=O)O)C(=O)N[C@@H](CCCCN)C(=O)N[C@@H](CCC(=O)O)C(=O)N[C@@H](CCCCN)C(=O)N[C@@H](CCCCNC(=O)COCCOCCNC(=O)COCCOCCNC(=O)CC[C@H](NC(=O)CC[C@H](NC(=O)CCCCCCCCCCCCCCCCC(=O)O)C(=O)O)C(=O)O)C(=O)N[C@@H](CCC(N)=O)C(=O)N[C@@H](C)C(=O)N[C@H](C(=O)N[C@H](C(=O)N[C@@H](CC(N)=O)C(=O)N[C@@H](C)C(=O)N[C@@H](CCC(N)=O)C(=O)N[C@H](C(=O)N[C@@H](CC(C)C)C(=O)N[C@@H](C)C(=O)N[C@@H](CCC(N)=O)C(=O)N[C@H](C(N)=O)C(C)C)[C@@H](C)CC)[C@@H](C)O)[C@@H](C)O)[C@@H](C)CC)[C@@H](C)CC)C(C)C)C(C)C [Compound 51] (H-IVLSLDVPIGLLQILLEQEKQEKEKK([AEEA-AEEA-γGlu-γGlu-C18 diacid])QATTNAQILAQV-NH2) | 2.42 nM
CCCCCCCCCCCCCCCC(=O)N[C@@H](CCC(=O)N[C@@H](CCC(=O)NCCCC[C@H](NC(=O)[C@H](CCCCN)NC(=O)[C@H](CCC(=O)O)NC(=O)[C@H](CCCCN)NC(=O)[C@H](CCC(=O)O)NC(=O)[C@H](CCC(N)=O)NC(=O)[C@H](CCCCN)NC(=O)[C@H](CCC(=O)O)NC(=O)[C@H](CCC(N)=O)NC(=O)[C@H](CCC(=O)O)NC(=O)[C@H](CC(C)C)NC(=O)[C@H](CC(C)C)NC(=O)[C@@H](NC(=O)[C@H](CCC(N)=O)NC(=O)[C@H](CC(C)C)NC(=O)[C@H](CC(C)C)NC(=O)CNC(=O)[C@@H](NC(=O)[C@@H]1CCCN1C(=O)[C@@H](NC(=O)[C@H](CC(=O)O)NC(=O)[C@H](CC(C)C)NC(=O)[C@H](CO)NC(=O)[C@H](CC(C)C)NC(=O)[C@@H](NC(=O)[C@@H](N)[C@@H](C)CC)C(C)C)C(C)C)[C@@H](C)CC)[C@@H](C)CC)C(=O)N[C@@H](CCC(N)=O)C(=O)N[C@@H](C)C(=O)N[C@H](C(=O)N[C@H](C(=O)N[C@@H](CC(N)=O)C(=O)N[C@@H](C)C(=O)N[C@@H](CCCNC(=N)N)C(=O)N[C@H](C(=O)N[C@@H](CC(C)C)C(=O)N[C@@H](C)C(=O)N[C@@H](CCCNC(=N)N)C(=O)N[C@H](C(N)=O)C(C)C)[C@@H](C)CC)[C@@H](C)O)[C@@H](C)O)C(=O)O)C(=O)O [Compound 34] (H-IVLSLDVPIGLLQILLEQEKQEKEKK([γGlu-γGlu-Palmitoyl])QATTNARILARV-NH2) | 4.54 nM
CCCCCCCCCCCCCCCC(=O)N[C@@H](CCC(=O)NCCCC[C@H](NC(=O)[C@H](CCC(N)=O)NC(=O)[C@H](CCC(N)=O)NC(=O)[C@H](CCCCN)NC(=O)[C@H](CCC(=O)O)NC(=O)[C@H](CCCCN)NC(=O)[C@H](CCC(=O)O)NC(=O)[C@H](CCC(N)=O)NC(=O)[C@H](CCCCN)NC(=O)[C@H](CCC(=O)O)NC(=O)[C@H](CCC(N)=O)NC(=O)[C@H](CCC(=O)O)NC(=O)[C@H](CC(C)C)NC(=O)[C@H](CC(C)C)NC(=O)[C@@H](NC(=O)[C@H](CCC(N)=O)NC(=O)[C@H](CC(C)C)NC(=O)[C@H](CC(C)C)NC(=O)CNC(=O)[C@@H](NC(=O)[C@@H]1CCCN1C(=O)[C@@H](NC(=O)[C@H](CC(=O)O)NC(=O)[C@H](CC(C)C)NC(=O)[C@H](CO)NC(=O)[C@H](CC(C)C)NC(=O)[C@@H](NC(=O)[C@@H](N)[C@@H](C)CC)C(C)C)C(C)C)[C@@H](C)CC)[C@@H](C)CC)C(=O)N[C@H](C(=O)N[C@H](C(=O)N[C@@H](CC(N)=O)C(=O)N[C@@H](C)C(=O)N[C@@H](CCCNC(=N)N)C(=O)N[C@H](C(=O)N[C@@H](CC(C)C)C(=O)N[C@@H](C)C(=O)N[C@@H](CCCNC(=N)N)C(=O)N[C@H](C(N)=O)C(C)C)[C@@H](C)CC)[C@@H](C)O)[C@@H](C)O)C(=O)O [Compound 36] (H-IVLSLDVPIGLLQILLEQEKQEKEKQQK([γGlu-Palmitoyl])TTNARILARV-NH2) | 331 nM

The remaining lines, values ahead:

EC50 | SMILES
31.5 nM | CCCCCCCCCCCCCCCC(=O)N[C@@H](CCC(=O)NCCCC[C@H](NC(=O)[C@H](CCC(N)=O)NC(=O)[C@H](CCCCN)NC(=O)[C@H](CCC(=O)O)NC(=O)[C@H](CCC(N)=O)NC(=O)[C@H](CCC(=O)O)NC(=O)[C@H](CC(C)C)NC(=O)[C@H](CC(C)C)NC(=O)[C@@H](NC(=O)[C@H](CCC(N)=O)NC(=O)[C@H](CC(C)C)NC(=O)[C@H](CC(C)C)NC(=O)CNC(=O)[C@@H](NC(=O)[C@@H]1CCCN1C(=O)[C@@H](NC(=O)[C@H](CC(=O)O)NC(=O)[C@H](CC(C)C)NC(=O)[C@H](CO)NC(=O)[C@H](CC(C)C)NC(=O)[C@@H](NC(=O)[C@@H](N)[C@@H](C)CC)C(C)C)C(C)C)[C@@H](C)CC)[C@@H](C)CC)C(=O)N[C@@H](CCCCN)C(=O)N[C@@H](CCC(=O)O)C(=O)N[C@@H](CCCCN)C(=O)N[C@@H](CCC(N)=O)C(=O)N[C@@H](CCC(N)=O)C(=O)N[C@@H](C)C(=O)N[C@H](C(=O)N[C@H](C(=O)N[C@@H](CC(N)=O)C(=O)N[C@@H](C)C(=O)N[C@@H](CCCNC(=N)N)C(=O)N[C@H](C(=O)N[C@@H](CC(C)C)C(=O)N[C@@H](C)C(=O)N[C@@H](CCCNC(=N)N)C(=O)N[C@H](C(N)=O)C(C)C)[C@@H](C)CC)[C@@H](C)O)[C@@H](C)O)C(=O)O [Compound 27] (H-IVLSLDVPIGLLQILLEQEKQK([γGlu-Palmitoyl])KEKQQATTNARILARV-NH2)
11.7 nM | CC[C@H](C)[C@H](N)C(=O)N[C@H](C(=O)N[C@@H](CC(C)C)C(=O)N[C@@H](CO)C(=O)N[C@@H](CC(C)C)C(=O)N[C@@H](CC(=O)O)C(=O)N[C@H](C(=O)N1CCC[C@H]1C(=O)N[C@H](C(=O)NCC(=O)N[C@@H](CC(C)C)C(=O)N[C@@H](CC(C)C)C(=O)N[C@@H](CCC(N)=O)C(=O)N[C@H](C(=O)N[C@@H](CC(C)C)C(=O)N[C@@H](CC(C)C)C(=O)N[C@@H](CCC(=O)O)C(=O)N[C@@H](CCC(N)=O)C(=O)N[C@@H](CCC(=O)O)C(=O)N[C@@H](CCCCN)C(=O)N[C@@H](CCC(N)=O)C(=O)N[C@@H](CCC(=O)O)C(=O)N[C@@H](CCCCN)C(=O)N[C@@H](CCC(=O)O)C(=O)N[C@@H](CCCCNC(=O)COCCOCCNC(=O)COCCOCCNC(=O)CC[C@H](NC(=O)CC[C@H](NC(=O)CCCCCCCCCCCCCCCCC(=O)O)C(=O)O)C(=O)O)C(=O)N[C@@H](CCC(N)=O)C(=O)N[C@@H](CCC(N)=O)C(=O)N[C@@H](C)C(=O)N[C@H](C(=O)N[C@H](C(=O)N[C@@H](CC(N)=O)C(=O)N[C@@H](C)C(=O)N[C@@H](CCC(N)=O)C(=O)N[C@H](C(=O)N[C@@H](CC(C)C)C(=O)N[C@@H](C)C(=O)N[C@@H](Cc1c[nH]cn1)C(=O)N[C@H](C(N)=O)C(C)C)[C@@H](C)CC)[C@@H](C)O)[C@@H](C)O)[C@@H](C)CC)[C@@H](C)CC)C(C)C)C(C)C [Compound 46] (H-IVLSLDVPIGLLQILLEQEKQEKEK([AEEA-AEEA-γGlu-γGlu-C18 diacid])QQATTNAQILAHV-NH2)
